Laboratory results reported in patent US20060078629A1, “Nutritional compositions and use thereof” (priority 2003, published 2006).

Assays:
[1] = system: chemically induced cancers; details: in vivo; cited from earlier work
[2] = system: DNA damage in various tissues; details: Food Chem Toxicol 2000, 38:15; cited from earlier work
[3] = slow (e.g. 20 minutes) intravenous injection, 400 mg glutathione in 20 ml saline
From the text: According to one aspect of the invention, the intravenous administration of glutathione is used to achieve the desired blood levels. […] Repeated injections may be necessary in severely ill patients.

OCc1c[nH]c2ccccc12 [Example I3C, Indole-3-carbinol]
prevention of chemically induced cancers [1]: up to 90%
decrease of DNA damage in various tissues [2]: 67-82%

N[C@@H](CCC(=O)N[C@@H](CS)C(=O)NCC(=O)O)C(=O)O [glutathione]
achieving the desired blood glutathione levels [3]: effective
